# Laboratory results from patent publication US6750228B1, “Aromatic sulfone hydroxamic acid metalloprotease inhibitor” (priority 1997, dated 2004).
# Counter-ions that a name gives are not always drawn.
# What was measured:
# Assay in all cases: biochemical
# [1] = target: T1, MMP-1 (Homo sapiens, UniProt P03956); details: recombinant human MMP-1, MCA peptide substrate 4 μM, pH 7.5, room temperature; read-out: MMP-1 IC50
# T1 construct: made in house; host or cells: transfected HT-1080 cells (provided by Dr. Harold Welgus, Washington University)
# T1 sequence (P03956 100-469): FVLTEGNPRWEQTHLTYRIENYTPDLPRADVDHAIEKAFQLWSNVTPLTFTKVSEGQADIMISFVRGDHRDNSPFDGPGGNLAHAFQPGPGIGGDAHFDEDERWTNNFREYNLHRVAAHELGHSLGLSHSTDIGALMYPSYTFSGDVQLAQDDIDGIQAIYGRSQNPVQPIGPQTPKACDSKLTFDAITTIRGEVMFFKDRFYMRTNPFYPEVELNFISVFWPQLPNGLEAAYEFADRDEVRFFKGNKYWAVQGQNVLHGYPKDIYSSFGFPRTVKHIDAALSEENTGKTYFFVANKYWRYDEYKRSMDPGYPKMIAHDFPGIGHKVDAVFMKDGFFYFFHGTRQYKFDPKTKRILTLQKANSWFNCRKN
# Procedure, shortened: (§1)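 APMA- or trypsin-activated human MMPs (MMP-1 from transfected HT-1080 cells, MMP-2 from transfected cells) preincubated with inhibitor in 1% DMSO at room temperature, then 4 μM MCA-Pro-Leu-Gly-Leu-Dpa-Ala-Arg-NH2 added in Tris/NaCl/CaCl2 buffer pH 7.5. IC50 from fluorescence reduction versus inhibitor concentration.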
# [2] = target: T2, MMP-13 (Homo sapiens, UniProt P45452); details: recombinant human MMP-13, MCA peptide substrate 4 μM, pH 7.5, room temperature; read-out: MMP-13 IC50
# T2 construct: made in house; host or cells: baculovirus / insect cells
# Procedure, shortened: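 APMA- or trypsin-activated enzymes were preincubated with inhibitor for 5 min at room temperature, then the fluorogenic substrate MCA-Pro-Leu-Gly-Leu-Dpa-Ala-Arg-NH2 was added to a final 4 μM.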
# [3] = target: T3, MMP-2 (Homo sapiens, UniProt P08253); details: recombinant human MMP-2, MCA peptide substrate 4 μM, pH 7.5, room temperature; read-out: MMP-2 IC50
# T3 construct: made in house; provided by Dr. Gregory Goldberg, Washington University
# T3 sequence (P08253 110-660): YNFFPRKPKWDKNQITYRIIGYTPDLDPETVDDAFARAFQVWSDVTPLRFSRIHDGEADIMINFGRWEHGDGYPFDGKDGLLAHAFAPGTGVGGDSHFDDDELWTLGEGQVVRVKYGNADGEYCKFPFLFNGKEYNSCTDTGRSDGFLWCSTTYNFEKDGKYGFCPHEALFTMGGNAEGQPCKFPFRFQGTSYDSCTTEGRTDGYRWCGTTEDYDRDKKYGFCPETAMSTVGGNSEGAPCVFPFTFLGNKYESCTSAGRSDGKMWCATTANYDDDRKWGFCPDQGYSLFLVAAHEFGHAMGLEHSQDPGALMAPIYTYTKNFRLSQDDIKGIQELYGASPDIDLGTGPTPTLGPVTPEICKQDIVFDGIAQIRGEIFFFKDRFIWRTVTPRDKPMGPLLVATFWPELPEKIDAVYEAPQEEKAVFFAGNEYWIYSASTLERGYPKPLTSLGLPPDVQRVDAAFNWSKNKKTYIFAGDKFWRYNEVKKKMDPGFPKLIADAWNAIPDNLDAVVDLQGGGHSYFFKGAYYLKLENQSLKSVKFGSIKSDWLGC
# Procedure, shortened: as §1
Compound,IC50 [1] [µM],IC50 [2] [µM],IC50 [3] [µM]
Cc1cc(C)cc(OC2CCN(c3ccc(S(=O)(=O)C4(C(=O)NO)CCOCC4)cc3)CC2)c1 [Example 187],> 10,0.01,0.6
O=C(NO)C1(S(=O)(=O)c2ccc(N3CCC(OCc4ccc(Cl)cc4)CC3)cc2)CCOCC1 [Example 170],> 10,0.0024,0.2
CC(C)(Cl)CC(=O)C1CCN(c2ccc(S(=O)(=O)C3(C(=O)NO)CCOCC3)cc2)CC1 [Example 760],> 10,0.006,0.0254
CCc1ccc(C(=O)C2CCN(c3ccc(S(=O)(=O)C4(C(=O)NO)CCOCC4)cc3)CC2)cc1 [Example 733],> 10,0.0016,0.27
CN(C)CCN(C)CC(=O)N1CCC(C(=O)NO)(S(=O)(=O)c2ccc(Oc3ccc(C(F)(F)F)cc3)cc2)CC1 [Example 323],> 10,0.0013,0.0004
COc1ccc(C(=O)C2CCN(c3ccc(S(=O)(=O)C4(C(=O)NO)CCN(c5ccncc5)CC4)cc3)CC2)cc1 [Example 438],> 10,0.0014,0.16
O=C(NO)C1(S(=O)(=O)c2ccc(N3CCC(OCc4ccccn4)CC3)cc2)CCOCC1 [Example 578],> 10,0.16,2
O=C(NO)C1(S(=O)(=O)c2ccc(N3CCCCC3CCOCc3ccc(F)cc3)cc2)CCOCC1 (stereo not drawn) [Example 510],> 10,7.7,> 10
CN(C)c1cccc(C(=O)C2CCN(c3ccc(S(=O)(=O)C4(C(=O)NO)CCOCC4)cc3)CC2)c1 [Example 790],> 10,0.0045,0.7

# Results, then the compound that gave them:
IC50 [1] [µM],IC50 [2] [µM],IC50 [3] [µM],Compound
> 10,0.19,2.3,O=C(NO)C1(S(=O)(=O)c2ccc(N3CCC(OCc4ccccc4-c4ccccc4)CC3)cc2)CCOCC1 [Example 181]
> 10,0.235,5.3,"COCCN1CCC(C(=O)NO)(S(=O)(=O)c2ccc(N3CCC(C(=O)N(C)CCc4ccccn4)CC3)cc2)CC1 [Example 235, 1-[4-[[4[(Hydroxyamino)carbonyl]-1-(2-methoxyethyl)-4-piperidinyl]sulfonyl]phenyl]-N-methyl-N-[2-(2-pyridinyl)ethyl]-4-piperidinecarboxamide, Dihydrochloride]"
> 10,0.0045,0.306,N#Cc1cccc(COC2CCN(c3ccc(S(=O)(=O)C4(C(=O)NO)CCOCC4)cc3)CC2)c1 [Example 560]
> 10,0.0035,0.44,O=C(NO)C1(S(=O)(=O)c2ccc(N3CCC(OCc4ccc(F)cc4)CC3)cc2)CCOCC1 [Example 164]
> 10,0.0145,0.0211,CC1CCN(c2ccc(S(=O)(=O)C3(C(=O)NO)CCOCC3)cc2)CC1 [Example 495]
> 10,0.02,2,Cc1ccc([N+](=O)[O-])c(OC2CCN(c3ccc(S(=O)(=O)C4(C(=O)NO)CCOCC4)cc3)CC2)c1 [Example 550]
> 10,0.0254,0.14,CCNCc1ccc(COC2CCN(c3ccc(S(=O)(=O)C4(C(=O)NO)CCOCC4)cc3)CC2)cc1 [Example 476]
3.4,0.0067,0.33,O=C(NO)C1(S(=O)(=O)c2ccc(N3CCC(OCc4cccc(OC(F)(F)F)c4)CC3)cc2)CCOCC1 [Example 173]
6,0.0018,0.0012,COCCc1ccc(OC2CCN(c3ccc(S(=O)(=O)C4(C(=O)NO)CCOCC4)cc3)CC2)cc1 [Example 643]
> 10,0.0147,1.2,O=C(NO)C1(S(=O)(=O)c2ccc(N3CCCN(S(=O)(=O)c4ccccc4)CC3)cc2)CCOCC1 [Example 650]
> 10,0.0038,0.022,Cc1ccc(OC2CCN(c3ccc(S(=O)(=O)C4(C(=O)NO)CCOCC4)cc3)CC2)cc1C [Example 637]
